Source: publication PMC4382718 (Carbohydrate research, 2015)
Read-outs that look alike come from different tables or passages of the source.

Legend:
[1] = target: T1, dLManII (Drosophila melanogaster lysosomal α-mannosidase II) (Drosophila melanogaster, UniProt Q9VKV1); assay: Class II α-mannosidase inhibition assay; type: biochemical
T1 sequence (Q9VKV1 25-1080): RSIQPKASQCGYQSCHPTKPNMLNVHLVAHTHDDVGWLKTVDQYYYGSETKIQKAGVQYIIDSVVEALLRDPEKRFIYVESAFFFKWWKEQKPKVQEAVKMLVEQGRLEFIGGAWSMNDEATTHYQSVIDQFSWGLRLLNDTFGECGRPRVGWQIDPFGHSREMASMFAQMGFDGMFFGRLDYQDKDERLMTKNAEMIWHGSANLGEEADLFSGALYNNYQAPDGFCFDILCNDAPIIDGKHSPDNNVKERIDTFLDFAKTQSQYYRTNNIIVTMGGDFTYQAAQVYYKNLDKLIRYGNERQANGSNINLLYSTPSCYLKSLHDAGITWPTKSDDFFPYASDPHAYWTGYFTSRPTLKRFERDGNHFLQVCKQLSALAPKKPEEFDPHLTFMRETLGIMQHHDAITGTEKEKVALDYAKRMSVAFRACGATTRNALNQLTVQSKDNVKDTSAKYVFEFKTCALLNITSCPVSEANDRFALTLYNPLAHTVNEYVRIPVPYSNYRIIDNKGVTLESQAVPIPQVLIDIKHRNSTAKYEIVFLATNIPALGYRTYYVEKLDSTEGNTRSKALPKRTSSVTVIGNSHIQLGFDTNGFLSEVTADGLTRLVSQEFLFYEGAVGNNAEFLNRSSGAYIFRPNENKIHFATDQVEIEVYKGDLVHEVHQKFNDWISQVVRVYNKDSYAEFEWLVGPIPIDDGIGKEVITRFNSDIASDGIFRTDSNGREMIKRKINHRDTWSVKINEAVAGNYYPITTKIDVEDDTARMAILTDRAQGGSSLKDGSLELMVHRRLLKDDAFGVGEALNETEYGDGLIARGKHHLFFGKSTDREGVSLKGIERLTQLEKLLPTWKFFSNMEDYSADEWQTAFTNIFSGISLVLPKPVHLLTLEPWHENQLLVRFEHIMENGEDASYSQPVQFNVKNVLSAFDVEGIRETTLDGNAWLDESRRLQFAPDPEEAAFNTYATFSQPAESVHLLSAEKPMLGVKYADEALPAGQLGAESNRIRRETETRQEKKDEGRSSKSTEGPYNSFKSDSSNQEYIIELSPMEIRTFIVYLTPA

[2] = target: T2, dGMIIb (Drosophila melanogaster Co(II)-activated Golgi α-mannosidase IIb) (Drosophila melanogaster, UniProt Q9VF33); assay: Class II α-mannosidase inhibition assay; type: biochemical
T2 sequence (Q9VF33 31-1249): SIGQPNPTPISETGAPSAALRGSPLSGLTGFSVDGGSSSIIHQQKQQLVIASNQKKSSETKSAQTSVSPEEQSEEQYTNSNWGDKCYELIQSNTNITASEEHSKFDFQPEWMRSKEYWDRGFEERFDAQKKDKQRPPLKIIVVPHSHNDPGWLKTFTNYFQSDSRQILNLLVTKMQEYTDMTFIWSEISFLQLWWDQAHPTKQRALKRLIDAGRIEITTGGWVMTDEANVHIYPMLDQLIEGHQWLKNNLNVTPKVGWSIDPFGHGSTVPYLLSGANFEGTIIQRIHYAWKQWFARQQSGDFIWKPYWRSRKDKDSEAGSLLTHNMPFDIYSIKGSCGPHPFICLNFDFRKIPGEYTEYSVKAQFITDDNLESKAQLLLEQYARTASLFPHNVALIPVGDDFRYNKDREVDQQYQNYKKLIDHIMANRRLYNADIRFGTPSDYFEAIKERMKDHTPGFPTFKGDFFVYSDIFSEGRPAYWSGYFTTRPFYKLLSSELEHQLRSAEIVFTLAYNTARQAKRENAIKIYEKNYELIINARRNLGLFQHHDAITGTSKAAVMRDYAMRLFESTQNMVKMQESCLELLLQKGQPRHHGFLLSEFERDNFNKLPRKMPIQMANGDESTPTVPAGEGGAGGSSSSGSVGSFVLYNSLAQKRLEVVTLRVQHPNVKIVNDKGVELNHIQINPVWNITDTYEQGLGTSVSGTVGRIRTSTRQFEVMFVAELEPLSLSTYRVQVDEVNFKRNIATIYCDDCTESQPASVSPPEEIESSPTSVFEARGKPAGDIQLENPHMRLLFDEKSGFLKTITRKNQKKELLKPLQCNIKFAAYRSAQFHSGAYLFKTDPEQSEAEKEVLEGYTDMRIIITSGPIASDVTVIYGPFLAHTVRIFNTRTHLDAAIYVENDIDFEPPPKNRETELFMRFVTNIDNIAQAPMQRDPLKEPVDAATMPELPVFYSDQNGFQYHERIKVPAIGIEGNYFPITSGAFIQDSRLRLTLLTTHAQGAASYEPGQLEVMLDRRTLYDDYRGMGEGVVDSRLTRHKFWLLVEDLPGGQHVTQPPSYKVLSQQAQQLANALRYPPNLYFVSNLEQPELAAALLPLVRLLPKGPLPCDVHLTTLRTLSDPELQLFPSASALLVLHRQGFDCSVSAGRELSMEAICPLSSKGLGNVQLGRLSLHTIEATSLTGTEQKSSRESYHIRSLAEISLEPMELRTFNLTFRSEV

[3] = target: T3, jack bean α-mannosidase (JBMan) (Canavalia ensiformis, UniProt C0HJB3); assay: Jack bean α-mannosidase inhibition assay; type: biochemical
T3 sequence (C0HJB3 1-981): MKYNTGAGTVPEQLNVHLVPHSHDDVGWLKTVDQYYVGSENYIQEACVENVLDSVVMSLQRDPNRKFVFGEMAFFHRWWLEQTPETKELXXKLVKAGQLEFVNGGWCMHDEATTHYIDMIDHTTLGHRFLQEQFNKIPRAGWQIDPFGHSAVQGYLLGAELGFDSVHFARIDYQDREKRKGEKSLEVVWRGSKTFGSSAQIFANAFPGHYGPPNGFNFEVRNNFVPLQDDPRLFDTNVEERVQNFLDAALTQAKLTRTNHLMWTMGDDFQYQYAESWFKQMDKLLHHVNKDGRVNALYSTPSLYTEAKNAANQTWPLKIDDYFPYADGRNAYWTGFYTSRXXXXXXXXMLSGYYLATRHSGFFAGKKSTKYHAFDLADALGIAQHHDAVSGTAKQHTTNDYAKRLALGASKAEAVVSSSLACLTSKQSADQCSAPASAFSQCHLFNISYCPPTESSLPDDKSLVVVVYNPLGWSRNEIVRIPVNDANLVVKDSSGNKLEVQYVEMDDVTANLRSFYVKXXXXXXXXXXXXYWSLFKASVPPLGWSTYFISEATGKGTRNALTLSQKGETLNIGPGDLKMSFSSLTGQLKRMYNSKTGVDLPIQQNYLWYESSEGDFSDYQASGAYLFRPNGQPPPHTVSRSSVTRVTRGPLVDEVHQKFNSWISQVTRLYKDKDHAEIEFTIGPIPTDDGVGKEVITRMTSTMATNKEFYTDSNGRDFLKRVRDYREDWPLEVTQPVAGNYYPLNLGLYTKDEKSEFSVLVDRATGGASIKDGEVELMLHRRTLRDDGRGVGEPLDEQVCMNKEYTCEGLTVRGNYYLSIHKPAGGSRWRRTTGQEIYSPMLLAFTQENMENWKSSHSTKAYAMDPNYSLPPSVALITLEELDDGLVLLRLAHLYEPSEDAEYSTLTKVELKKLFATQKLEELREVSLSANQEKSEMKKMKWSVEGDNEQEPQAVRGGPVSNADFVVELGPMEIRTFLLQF

[4] = target: T4, Aspergillus saitoi α1,2-mannosidase (AspMan) (Aspergillus phoenicis, UniProt Q12563); type: biochemical
T4 sequence (Q12563 22-513): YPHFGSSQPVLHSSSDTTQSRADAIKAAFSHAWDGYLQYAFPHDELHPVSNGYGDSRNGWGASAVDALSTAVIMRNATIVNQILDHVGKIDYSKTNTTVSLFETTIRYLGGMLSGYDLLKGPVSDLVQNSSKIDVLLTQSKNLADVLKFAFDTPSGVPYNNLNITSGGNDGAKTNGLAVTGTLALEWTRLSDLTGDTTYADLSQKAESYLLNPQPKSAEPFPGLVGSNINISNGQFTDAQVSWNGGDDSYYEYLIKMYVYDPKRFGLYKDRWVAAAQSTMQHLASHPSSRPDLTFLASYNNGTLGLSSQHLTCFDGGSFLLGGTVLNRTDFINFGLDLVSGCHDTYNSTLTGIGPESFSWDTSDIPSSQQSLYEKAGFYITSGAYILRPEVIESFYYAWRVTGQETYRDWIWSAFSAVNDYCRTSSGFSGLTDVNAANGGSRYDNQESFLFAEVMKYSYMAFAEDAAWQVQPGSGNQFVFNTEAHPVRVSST

[5] = target: T3, jack bean α-mannosidase (JBMan); conditions: read-out: IC50 JBMan, cited from earlier work
[6] = target: T2, dGMIIb (Drosophila melanogaster Co(II)-activated Golgi α-mannosidase IIb); conditions: cited from earlier work
[7] = target: dGMII (Drosophila melanogaster α-mannosidase II); conditions: read-out: Ki dGMII (printed in dGMIIb column); ref Shah et al.[41]; cited from earlier work

Row | Structure (SMILES) | IC50 [1] [mM] | IC50 [2] [mM] | IC50 [3] [µM] | IC50 [4] [µM] | also measured
1 | OC[C@H]1O[C@H](n2cc(CCc3ccccc3)nn2)[C@@H](O)[C@@H](O)[C@@H]1O [Compound 8, 1-α-D-mannopyranosyl-4-(2-phenylethyl)-1,2,3-triazole] | 5 | 6 | 400 | 250 | –
2 | CS[C@@H]1[C@@H](N)[C@@H](O)[C@@H](O)[C@H]1O [Mannostatin A, reference compound] | 0.003 | 0.00015 | – | – | IC50 ([5]; ref Ogawa et al.[44]): 0.24 µM
3 | OC[C@H]1O[C@H](n2cc(Cc3ccccc3)nn2)[C@@H](O)[C@@H](O)[C@@H]1O [Compound 7, 4-Benzyl-1-α-D-mannopyranosyl-1,2,3-triazole] | 0.5 | 5 | 1100 | 100 | –
4 | O=S(=O)(Cc1ccccc1)[C@H]1O[C@H](CO)[C@@H](O)[C@H](O)[C@@H]1O [Compound 9, benzyl α-D-mannopyranosyl sulfone] | – | – | – | – | IC50 ([3]; read-out: IC50 JBMan, pNP-Manp substrate, pH 4.5): 2000 µM; IC50 ([6]; read-out: IC50 dGMIIb, ref Poláková et al.[30]): 2 mM; selectivity GMII vs LM ([6]; ref [30]): selective towards GMII
5 | O=C1N[C@@H]2[C@@H](O)[C@@H](O)[C@H](O)[C@@H](CO)N2C1=O [Kifunensine] | – | – | – | – | IC50 ([5]; ref Kayakiri et al.[42]): 120 µM; Ki [7]: 5.2 mM
6 | OC[C@H]1O[C@H](n2cc(-c3ccccc3)nn2)[C@@H](O)[C@@H](O)[C@@H]1O [Compound 6, 1-α-D-mannopyranosyl-4-phenyl-1,2,3-triazole] | 5 | 5 | 400 | 50 | selectivity ratio [IC50(GH38)/IC50(GH47)] ([4]; GH38 mannosidases vs GH47 AspMan): 100
